Measured values published in publication PMC6010121, “Structural re-positioning, in silico molecular modelling, oxidative degradation, and biological screening of linagliptin as adenosine 3 receptor (ADORA3) modulators targeting hepatocellular carcinoma” (Journal of Enzyme Inhibition and Medicinal Chemistry, 2018).
pKi: −log10 of the molar value.

Target: T1, adenosine 3 receptor (ADORA3) (Homo sapiens, UniProt P0DMS8)
T1 construct: recombinant human ADORA3 (Abcam)
T1 sequence (P0DMS8 1-318): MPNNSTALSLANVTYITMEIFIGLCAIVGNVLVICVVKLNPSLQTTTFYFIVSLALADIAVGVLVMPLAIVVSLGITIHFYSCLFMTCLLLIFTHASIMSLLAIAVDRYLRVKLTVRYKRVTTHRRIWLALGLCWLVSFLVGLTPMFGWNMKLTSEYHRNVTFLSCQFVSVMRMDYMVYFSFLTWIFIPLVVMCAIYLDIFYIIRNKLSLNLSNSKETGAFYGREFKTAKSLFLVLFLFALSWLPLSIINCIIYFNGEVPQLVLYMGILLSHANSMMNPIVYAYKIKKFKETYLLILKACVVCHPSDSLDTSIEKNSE
Assay: ELISA-based binding inhibition with recombinant human ADORA3 on anti-ADORA3 antibody-coated wells; Ki calculated from IC50 ([…])

`CC#CCn1c(N2CCC[C@@H](N)C2)nc2c1c(=O)n(Cc1nc(C)c3ccccc3n1)c(=O)n2C` [LIN, linagliptin] was tested, and the pKi was 7.42.
